Reference: patent publication US20050112573A1, “Method of detecting toxic substance” (priority 2001, published 2005)

Test system: yeast genes (level of expressed mRNA)
Assay: DNA chip analysis of expressed mRNA of yeast genes after 2 h culture with a toxic chemical substance
Type: cell-based, Saccharomyces cerevisiae S288C
Conditions: for The level of expressed mRNA in the presence of chemical substance/ (ratio to absence of chemical substance): stress protein genes, DNA chip
Protocol: Yeast (Saccharomyces cerevtisiae S288C (α SUC2mal mel gap2 CUP1)) were cultured at 25° C. on YPD medium (yeast extract 1%, polypepton 2%, glucose 2%). One of toxic chemical substances was added to the cell at logarithmic growth phase, and the cell was further cultured for two hours. Cell was cultured without any chemical substance in the same condition, and was used as control. Concentrations of the chemical substances were defined to inhibit the growth of the yeast but not lead to death.
After the completion of cultivation, the culture was centrifuged to collect the cells. To the cells, sodium acetate buffer (50 mM sodium acetate, 10 mM EDTA, 1% SDS) was added, and the mixture was shaken at 65° C. for five minutes, followed by returning to room temperature, and obtaining the supernatant, which procedure was repeated two times. To the supernatant, ½ amount of a solution of phenol/chloroform was added, and the mixture was centrifuged to give a supernatant, which was added with an equal amount of chloroform, and the mixture was centrifuged to give a supernatant. To the supernatant, an equal amount of isopropanol containing 0.3 M sodium acetate was added, and the mixture was allowed to stand at room temperature for 30 minutes, after which the mixture was centrifuged to give a sediment of the whole RNAs. Seventy % ethanol was added to the sediment, and the mixture was again centrifuged to give a sediment, which was then dried and dissolved in water. mRNA was isolated from the whole RNAs as followings. In view of the fact that a poly A chain is attached to the 3′ terminus of mRNA, a polynucleotide having a poly T structure which was immobilized on the surface of latex beads was used to trap the mRNA, and then the mRNA was washed and eluted with spine column (Oligotex-dT30<Super>mRNA Purification Kit, Takara). Reverse transcription of the mRNA was conducted with a reverse transcriptase (Super Script II Reverse Transcriptase; catalogue No. 18064-014, GibcoBRL) using fluorescence-labeled nucleotides to give cDNAs that were introduced with Cy3-dUTP or Cy5-dUTP during the reverse transcription.
The labeled cDNAs were dissolved in TE buffer (10 mM Tris-HCl/1 mM EDTA, pH8.0), and the solution was dropped on the DNA chip containing the whole genes of yeast (DNA Chip Research Inc. Japan) so that the cDNAs were hybridized on the DNA chip at 65° C. for over 12 hours. The fluoresces intensity of the DNA chip was read with a scanner, and the ratio relative to the fluorescence intensity resulting from the absence of chemical substance was estimated as the following, which is shown in Tables 1 to 9: [formula]
In the Tables, “Intensity” indicated in the rightmost column is a value of the level of expressed mRNA of each gene in control cells as divided by the average level of the expressions of the whole genes.

SMILES: CCCCCCCCCCCCOS(=O)(=O)[O-].[Na+] [(18), sodium lauryl sulfate]
- The level of expressed mRNA in the presence of chemical substance/The level of expressed mRNA in the absence of chemical substance (yeast gene YIL140W): 1.0
- The level of expressed mRNA in the presence of chemical substance/ (in its absence), gene YJL070C (yeast gene YJL070C, ratio of DNA chip fluorescence intensity to that without chemical substance): 1.2
- The level of expressed mRNA in the presence of chemical substance/The level of expressed mRNA in the absence of chemical substance (yeast gene YJL073W): 1.0
- The level of expressed mRNA in the presence of chemical substance/The level of expressed mRNA in the absence of chemical substance (yeast gene YJL089W): 1.1
- The level of expressed mRNA in the presence of chemical substance/ (ratio to absence), gene YJL096W (yeast gene YJL096W, mitochondria-located protein genes, 2 h culture with chemical): 1.2
- The level of expressed mRNA in the presence of chemical substance/The level of expressed mRNA in the absence of chemical substance (yeast gene YJL116C): 0.7
- The level of expressed mRNA in the presence of chemical substance/ (ratio to absence of chemical substance) (yeast gene YJL158C): 1.4
- The level of expressed mRNA in the presence of chemical substance/ (in its absence), gene YJL167W (yeast gene YJL167W, ratio of DNA chip fluorescence intensity to that without chemical substance): 2.1
- The level of expressed mRNA in the presence of chemical substance/ (ratio to absence), gene YJL180C (yeast gene YJL180C, mitochondria-located protein genes, 2 h culture with chemical): 1.4
- The level of expressed mRNA in the presence of chemical substance/ (in its absence), gene YJL216C (yeast gene YJL216C, ratio of DNA chip fluorescence intensity to that without chemical substance): 2.0
- The level of expressed mRNA in the presence of chemical substance/The level of expressed mRNA in the absence of chemical substance (yeast gene YJR004C): 0.4
- The level of expressed mRNA in the presence of chemical substance/The level of expressed mRNA in the absence of chemical substance (yeast gene YJR086W): 1.6
- The level of expressed mRNA in the presence of chemical substance/ (ratio to absence of chemical substance) (yeast gene YJR090C): 1.0
- The level of expressed mRNA in the presence of chemical substance/The level of expressed mRNA in the absence of chemical substance (yeast gene YKL008C): 1.9
- The level of expressed mRNA in the presence of chemical substance/The level of expressed mRNA in the absence of chemical substance (yeast gene YKL013C): 1.7
- The level of expressed mRNA in the presence of chemical substance/The level of expressed mRNA in the absence of chemical substance (yeast gene YKL039W): 1.3
- The level of expressed mRNA in the presence of chemical substance/The level of expressed mRNA in the absence of chemical substance (yeast gene YKL041W): 1.3
- The level of expressed mRNA in the presence of chemical substance/The level of expressed mRNA in the absence of chemical substance (yeast gene YKL096W): 0.7
- The level of expressed mRNA in the presence of chemical substance/ (ratio to absence of chemical substance) (yeast gene YKL164C): 0.8
- The level of expressed mRNA in the presence of chemical substance/The level of expressed mRNA in the absence of chemical substance (yeast gene YKL165C): 1.0
- The level of expressed mRNA in the presence of chemical substance/The level of expressed mRNA in the absence of chemical substance (yeast gene YKL193C): 2.3
- The level of expressed mRNA in the presence of chemical substance/ (in its absence), gene YKR009C (yeast gene YKR009C, ratio of DNA chip fluorescence intensity to that without chemical substance): 2.5
- The level of expressed mRNA in the presence of chemical substance/ (in its absence), gene YKR034W (yeast gene YKR034W, ratio of DNA chip fluorescence intensity to that without chemical substance): 1.0
- The level of expressed mRNA in the presence of chemical substance/ (ratio to absence of chemical substance) (yeast gene YKR053C): 2.4
- The level of expressed mRNA in the presence of chemical substance/ in its absence, gene YKR058W (yeast gene YKR058W, energy system protein genes, 2 h culture with the chemical, ratio to control without chemical): 1.6
- The level of expressed mRNA in the presence of chemical substance/ (in its absence), gene YLR006C (yeast gene YLR006C, ratio of DNA chip fluorescence intensity to that without chemical substance): 1.0
- The level of expressed mRNA in the presence of chemical substance/ (ratio to absence of chemical substance) (yeast gene YLR006C): 1.0
- The level of expressed mRNA in the presence of chemical substance/The level of expressed mRNA in the absence of chemical substance (yeast gene YLR120C): 2.9
- The level of expressed mRNA in the presence of chemical substance/The level of expressed mRNA in the absence of chemical substance (yeast gene YLR136C): 1.4
- The level of expressed mRNA in the presence of chemical substance/The level of expressed mRNA in the absence of chemical substance (yeast gene YLR178C): 3.6
- The level of expressed mRNA in the presence of chemical substance/The level of expressed mRNA in the absence of chemical substance (yeast gene YLR250W): 2.2
- The level of expressed mRNA in the presence of chemical substance/ in its absence, gene YLR295C (yeast gene YLR295C, energy system protein genes, 2 h culture with the chemical, ratio to control without chemical): 1.5
- The level of expressed mRNA in the presence of chemical substance/ (ratio to absence), gene YLR295C (yeast gene YLR295C, mitochondria-located protein genes, 2 h culture with chemical): 1.5
- The level of expressed mRNA in the presence of chemical substance/The level of expressed mRNA in the absence of chemical substance (yeast gene YLR327C): 5.3
- The level of expressed mRNA in the presence of chemical substance/ (in its absence), gene YLR351C (yeast gene YLR351C, ratio of DNA chip fluorescence intensity to that without chemical substance): 1.8
- The level of expressed mRNA in the presence of chemical substance/The level of expressed mRNA in the absence of chemical substance (yeast gene YLR356W): 1.0
- The level of expressed mRNA in the presence of chemical substance/The level of expressed mRNA in the absence of chemical substance (yeast gene YLR362W): 1.3
- The level of expressed mRNA in the presence of chemical substance/ (in its absence), gene YLR375W (yeast gene YLR375W, ratio of DNA chip fluorescence intensity to that without chemical substance): 1.0
- The level of expressed mRNA in the presence of chemical substance/The level of expressed mRNA in the absence of chemical substance (yeast gene YLR391W): 0.9
- The level of expressed mRNA in the presence of chemical substance/The level of expressed mRNA in the absence of chemical substance (yeast gene YLR429W): 0.9
- The level of expressed mRNA in the presence of chemical substance/ in its absence, gene YML129C (yeast gene YML129C, energy system protein genes, 2 h culture with the chemical, ratio to control without chemical): 1.3
- The level of expressed mRNA in the presence of chemical substance/ (ratio to absence), gene YML129C (yeast gene YML129C, mitochondria-located protein genes, 2 h culture with chemical): 1.3
- The level of expressed mRNA in the presence of chemical substance/The level of expressed mRNA in the absence of chemical substance (yeast gene YMR004W): 1.3
- The level of expressed mRNA in the presence of chemical substance/ (ratio to absence), gene YMR023C (yeast gene YMR023C, mitochondria-located protein genes, 2 h culture with chemical): 1.4
- The level of expressed mRNA in the presence of chemical substance/The level of expressed mRNA in the absence of chemical substance (yeast gene YMR094W): 1.0
- The level of expressed mRNA in the presence of chemical substance/The level of expressed mRNA in the absence of chemical substance (yeast gene YMR104C): 1.9
- The level of expressed mRNA in the presence of chemical substance/ (ratio to absence of chemical substance) (yeast gene YMR186W): 1.1
- The level of expressed mRNA in the presence of chemical substance/The level of expressed mRNA in the absence of chemical substance (yeast gene YMR219W): 0.9
- The level of expressed mRNA in the presence of chemical substance/The level of expressed mRNA in the absence of chemical substance (yeast gene YMR226C): 2.0
- The level of expressed mRNA in the presence of chemical substance/ in its absence, gene YMR267W (yeast gene YMR267W, energy system protein genes, 2 h culture with the chemical, ratio to control without chemical): 1.3
- The level of expressed mRNA in the presence of chemical substance/ (ratio to absence), gene YMR267W (yeast gene YMR267W, mitochondria-located protein genes, 2 h culture with chemical): 1.3
- The level of expressed mRNA in the presence of chemical substance/ in its absence, gene YMR267W (yeast gene YMR267W, ratio of DNA chip fluorescence intensity to that without chemical substance): 1.3
- The level of expressed mRNA in the presence of chemical substance/The level of expressed mRNA in the absence of chemical substance (yeast gene YMR275C): 0.7
- The level of expressed mRNA in the presence of chemical substance/The level of expressed mRNA in the absence of chemical substance (yeast gene YMR276W): 0.7
- The level of expressed mRNA in the presence of chemical substance/ (in its absence), gene YMR278W (yeast gene YMR278W, ratio of DNA chip fluorescence intensity to that without chemical substance): 1.5
- The level of expressed mRNA in the presence of chemical substance/ (in its absence), gene YMR293C (yeast gene YMR293C, ratio of DNA chip fluorescence intensity to that without chemical substance): 1.0
- The level of expressed mRNA in the presence of chemical substance/The level of expressed mRNA in the absence of chemical substance (yeast gene YMR314W): 1.6
